We go through 24 compounds from ChEMBL document CHEMBL4622874, “Discovery of ORN0829, a potent dual orexin 1/2 receptor antagonist for the treatment of insomnia” (Bioorg Med Chem, 2020).

In one series the target is T1, Orexin receptor type 2 (Homo sapiens, UniProt O43614).
T1 sequence (O43614 whole entry): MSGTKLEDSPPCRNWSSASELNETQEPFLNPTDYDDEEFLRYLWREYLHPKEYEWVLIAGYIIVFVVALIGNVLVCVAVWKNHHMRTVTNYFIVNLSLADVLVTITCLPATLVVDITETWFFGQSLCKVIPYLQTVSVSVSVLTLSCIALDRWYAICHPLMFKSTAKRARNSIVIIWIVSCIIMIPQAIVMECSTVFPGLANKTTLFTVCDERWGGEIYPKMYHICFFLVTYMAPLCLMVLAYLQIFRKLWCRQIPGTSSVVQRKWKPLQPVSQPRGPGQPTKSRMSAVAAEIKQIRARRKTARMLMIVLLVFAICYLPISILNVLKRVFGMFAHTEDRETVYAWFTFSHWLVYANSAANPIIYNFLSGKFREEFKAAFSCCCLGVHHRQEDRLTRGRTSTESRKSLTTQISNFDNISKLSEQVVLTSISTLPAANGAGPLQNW
Description: Antagonist activity at human recombinant OX2R expressed in CHOK1 cells assessed as inhibition of orexin A-induced intracellular Ca2+ release preincubated for 30 mins followed by orexin-A stimulation by Fluo-4AM dye based fluorescence analysis. In kind it is functional, cell-based, CHO-K1.

The nature of series [1]: Drug metabolism in human liver microsomes incubated for 15 mins. To be noted: read-out: Drug metabolism. The class given is ADME, Microsome.
The nature of series [2]: Lipophilicity, log D of the compound at pH 7.4 by HPLC analysis. The class given is physicochemical. To be noted: buffer.
The target of series [3] is T2, Orexin/Hypocretin receptor type 1 (Homo sapiens, UniProt O43613).
T2 sequence (O43613 whole entry): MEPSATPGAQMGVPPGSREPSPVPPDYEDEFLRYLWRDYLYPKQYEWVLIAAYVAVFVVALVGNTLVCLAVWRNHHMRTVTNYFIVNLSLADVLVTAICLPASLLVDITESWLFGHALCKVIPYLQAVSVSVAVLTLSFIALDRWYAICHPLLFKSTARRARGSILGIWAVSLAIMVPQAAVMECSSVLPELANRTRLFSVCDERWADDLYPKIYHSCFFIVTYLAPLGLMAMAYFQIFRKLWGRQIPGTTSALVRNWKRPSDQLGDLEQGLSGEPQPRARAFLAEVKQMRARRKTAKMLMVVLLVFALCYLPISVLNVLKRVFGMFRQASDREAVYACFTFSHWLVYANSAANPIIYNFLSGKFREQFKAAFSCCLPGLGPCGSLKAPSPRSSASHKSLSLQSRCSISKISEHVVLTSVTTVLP
The series is described as follows: Antagonist activity at human recombinant OX1R expressed in CHOK1 cells assessed as inhibition of orexin A-induced intracellular Ca2+ release preincubated for 30 mins followed by orexin-A stimulation by Fluo4-AM dye based fluorescence analysis. The class given is functional, cell-based, CHO-K1.

Another series has as its target P-gp (ABCB1) (Homo sapiens, UniProt P08183). The series is described as follows: Substrate activity at P-gp (unknown origin) assessed as efflux ratio. The class given is ADME. As to conditions: not told; call rule not given here.
Series [4] concerns the target Voltage-gated inwardly rectifying potassium channel KCNH2 (Homo sapiens, UniProt Q12809). Description: Inhibition of human ERG.
A further series deals with Cytochrome P450 3A4 (Homo sapiens, UniProt P08684). Description: Time dependent inhibition of CYP3A4 (unknown origin). The class given is ADME.
Chain of Cytochrome P450 3A4 (P08684 whole entry): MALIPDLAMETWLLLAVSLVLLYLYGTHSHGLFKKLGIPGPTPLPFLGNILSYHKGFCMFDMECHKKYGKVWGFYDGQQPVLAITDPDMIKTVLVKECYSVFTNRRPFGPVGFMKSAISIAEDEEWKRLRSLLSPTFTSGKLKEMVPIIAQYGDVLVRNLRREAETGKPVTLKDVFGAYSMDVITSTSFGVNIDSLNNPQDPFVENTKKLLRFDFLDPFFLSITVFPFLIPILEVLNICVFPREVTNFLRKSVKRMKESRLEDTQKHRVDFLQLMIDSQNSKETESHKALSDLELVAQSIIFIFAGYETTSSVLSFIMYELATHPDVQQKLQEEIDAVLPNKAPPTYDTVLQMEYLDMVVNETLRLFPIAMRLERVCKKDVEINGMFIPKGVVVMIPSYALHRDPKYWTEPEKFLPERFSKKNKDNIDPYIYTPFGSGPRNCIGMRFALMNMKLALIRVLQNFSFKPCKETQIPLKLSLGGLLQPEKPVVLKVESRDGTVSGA

Chain of P-gp (ABCB1) (P08183 whole entry): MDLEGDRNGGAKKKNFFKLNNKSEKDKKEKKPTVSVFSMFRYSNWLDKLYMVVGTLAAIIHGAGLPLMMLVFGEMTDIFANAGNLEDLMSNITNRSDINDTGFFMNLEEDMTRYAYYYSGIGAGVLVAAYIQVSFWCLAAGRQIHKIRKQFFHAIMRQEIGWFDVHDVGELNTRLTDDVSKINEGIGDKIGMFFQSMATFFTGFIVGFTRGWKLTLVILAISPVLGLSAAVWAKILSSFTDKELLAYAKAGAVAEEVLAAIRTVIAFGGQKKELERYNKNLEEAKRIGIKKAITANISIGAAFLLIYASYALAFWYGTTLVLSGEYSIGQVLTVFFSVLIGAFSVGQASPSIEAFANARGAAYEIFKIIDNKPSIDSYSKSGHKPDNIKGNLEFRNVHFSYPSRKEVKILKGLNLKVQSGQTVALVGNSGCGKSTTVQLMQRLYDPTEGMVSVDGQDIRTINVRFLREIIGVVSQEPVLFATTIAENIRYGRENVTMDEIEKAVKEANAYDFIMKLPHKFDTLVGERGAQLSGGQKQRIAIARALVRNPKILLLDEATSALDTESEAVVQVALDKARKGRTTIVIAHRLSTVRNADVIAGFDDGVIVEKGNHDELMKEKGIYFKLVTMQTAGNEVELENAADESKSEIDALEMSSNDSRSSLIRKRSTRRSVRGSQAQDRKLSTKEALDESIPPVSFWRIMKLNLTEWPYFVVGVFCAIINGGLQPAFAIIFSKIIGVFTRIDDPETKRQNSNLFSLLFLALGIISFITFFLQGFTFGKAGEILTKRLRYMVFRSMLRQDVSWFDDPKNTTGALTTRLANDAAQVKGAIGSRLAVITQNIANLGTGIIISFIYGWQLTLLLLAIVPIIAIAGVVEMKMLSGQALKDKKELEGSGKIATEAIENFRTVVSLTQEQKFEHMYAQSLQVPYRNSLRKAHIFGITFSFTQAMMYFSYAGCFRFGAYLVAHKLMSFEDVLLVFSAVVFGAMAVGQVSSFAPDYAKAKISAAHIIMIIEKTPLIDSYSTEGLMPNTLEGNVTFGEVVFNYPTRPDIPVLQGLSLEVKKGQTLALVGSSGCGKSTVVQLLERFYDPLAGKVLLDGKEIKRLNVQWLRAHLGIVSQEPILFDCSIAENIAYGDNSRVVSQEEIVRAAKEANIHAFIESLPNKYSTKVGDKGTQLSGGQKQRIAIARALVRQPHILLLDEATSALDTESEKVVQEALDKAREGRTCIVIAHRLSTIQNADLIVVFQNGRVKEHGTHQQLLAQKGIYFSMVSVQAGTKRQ
Chain of Voltage-gated inwardly rectifying potassium channel KCNH2 (Q12809 whole entry): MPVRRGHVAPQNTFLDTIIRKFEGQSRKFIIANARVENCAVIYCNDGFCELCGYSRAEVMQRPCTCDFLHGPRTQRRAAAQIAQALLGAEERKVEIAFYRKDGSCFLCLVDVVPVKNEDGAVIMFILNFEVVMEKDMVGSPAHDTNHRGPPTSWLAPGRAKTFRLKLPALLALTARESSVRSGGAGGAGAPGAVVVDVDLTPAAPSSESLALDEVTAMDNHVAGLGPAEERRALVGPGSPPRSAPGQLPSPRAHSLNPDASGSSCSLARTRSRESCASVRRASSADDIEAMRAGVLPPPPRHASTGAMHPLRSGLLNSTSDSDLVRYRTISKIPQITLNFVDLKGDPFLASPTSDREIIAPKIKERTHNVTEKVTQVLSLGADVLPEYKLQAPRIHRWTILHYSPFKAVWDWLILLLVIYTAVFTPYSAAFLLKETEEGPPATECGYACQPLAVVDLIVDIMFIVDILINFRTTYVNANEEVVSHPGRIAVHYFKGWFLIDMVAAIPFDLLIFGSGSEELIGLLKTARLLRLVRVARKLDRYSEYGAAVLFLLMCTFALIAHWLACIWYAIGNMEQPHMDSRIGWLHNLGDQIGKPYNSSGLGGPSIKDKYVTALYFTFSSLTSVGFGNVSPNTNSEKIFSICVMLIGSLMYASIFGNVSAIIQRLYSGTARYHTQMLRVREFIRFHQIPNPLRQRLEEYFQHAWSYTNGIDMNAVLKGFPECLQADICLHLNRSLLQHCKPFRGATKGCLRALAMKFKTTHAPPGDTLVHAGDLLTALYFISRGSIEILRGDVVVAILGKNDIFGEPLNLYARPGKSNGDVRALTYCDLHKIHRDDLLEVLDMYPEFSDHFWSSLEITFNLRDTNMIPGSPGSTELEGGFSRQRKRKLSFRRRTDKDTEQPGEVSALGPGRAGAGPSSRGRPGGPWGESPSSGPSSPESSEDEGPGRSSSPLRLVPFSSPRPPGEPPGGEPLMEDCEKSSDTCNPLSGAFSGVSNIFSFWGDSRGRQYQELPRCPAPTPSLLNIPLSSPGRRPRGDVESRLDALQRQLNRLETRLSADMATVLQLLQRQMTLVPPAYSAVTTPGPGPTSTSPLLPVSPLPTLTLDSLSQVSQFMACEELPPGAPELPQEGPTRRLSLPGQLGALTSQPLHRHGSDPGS

In general, IC50 refers to the point on the concentration scale where inhibition reaches its midpoint. As usually defined, the logD is lipophilicity at a set pH, counting ionised and neutral species. Read a low logD as a more hydrophilic compound. The efflux ratio is the permeability from basolateral to apical divided by that in the opposite direction, in the common usage. For `Cc1ccc(-n2nccn2)c(C(=O)N2COCC[C@H]2Cn2ccc(-c3ccc(F)cn3)n2)c1`, the 50% inhibitory concentration (IC50) at Orexin receptor type 2 worked out at 3.41 nM; in series [3] it was 3.36 nM. In addition, the metabolised at 0.25 h in series [1] was 24.1%. For the same compound, the logD in series [2] came out at 2.39. Also, the efflux ratio at P-gp (ABCB1) was found to be 3.08.
In the case of `Cc1ccc(-n2nccn2)c(C(=O)N2CCCO[C@H]2Cc2cnn(-c3ccc(F)cn3)c2)c1`, in series [1], the metabolised at 0.25 h turned out to be 29.7%. The same compound displayed a logD in series [2] of 3.03. In series [3], the IC50 worked out at 3.98 nM.
In the case of `Cc1ccc(-c2ncccn2)c(C(=O)N2CCCO[C@H]2Cn2ccc(-c3ccc(F)cn3)n2)c1`, the values for the IC50 (at Orexin receptor type 2; in series [3]) were 3.18 nM and 3.29 nM, respectively. Also, in series [1], the metabolised at 0.25 h turned out to be 26.3%. The same compound gave a log distribution coefficient (logD) in series [2] of 2.36. Moreover, the efflux ratio at P-gp (ABCB1) worked out at 6.74.
As to `Cc1ccc(-n2nccn2)c(C(=O)N2CCCO[C@H]2Cn2cc(-c3ccc(F)cn3)cn2)c1`, in series [1], the metabolised at 0.25 h worked out at 15.8%. This compound gave a log distribution coefficient (logD) in series [2] of 2.38. Besides, the IC50 in series [3] was 5.39 nM.
`O=C(c1cc(F)ccc1-n1nccn1)N1CCCO[C@H]1Cn1ccc(-c2ccc(F)cn2)n1`: the results for the IC50 (on Orexin receptor type 2; in series [3]) were 1.96 nM and 3.95 nM, respectively. Further, the metabolised at 0.25 h in series [1] is 43.2%. For the same compound, the log distribution coefficient (logD) in series [2] worked out at 2.46. Besides, the efflux ratio on P-gp (ABCB1) came out at 2.64.
As for `CCN(CCn1ccc(-c2ccc(F)cn2)n1)C(=O)c1cc(C)ccc1-n1nccn1`, the metabolised at 0.25 h in series [1] was 20.2%. The logD in series [2] came to 2.78. On P-gp (ABCB1), the efflux ratio came to 1.51.
In the case of `Cc1ccc(-n2nccn2)c(C(=O)N2CCCO[C@H]2Cc2noc(-c3ccc(F)cn3)n2)c1`, the results for the IC50 (at Orexin receptor type 2; in series [3]) were 3.6 nM and 4.54 nM, respectively. Further, the metabolised at 0.25 h in series [1] amounted to 19.5%. The logD in series [2] was determined as 2.53. Also, the efflux ratio at P-gp (ABCB1) amounted to 3.06.
Regarding `Cc1ccc(-n2nccn2)c(C(=O)N2CCCO[C@H]2Cn2cc(-c3ccc(F)cn3)nn2)c1`, the 50% inhibitory concentration (IC50) on Orexin receptor type 2 came to 3.07 nM; in series [3] it was 12.1 nM. Moreover, in series [1], the metabolised at 0.25 h amounted to 4.3%. This compound also showed a log distribution coefficient (logD) in series [2] of 2.38. In addition, the efflux ratio on P-gp (ABCB1) worked out at 4.97.
For `O=C(c1ccccc1-n1nccn1)N1CCCO[C@H]1Cn1ccc(-c2ccc(F)cn2)n1`, the IC50 on Orexin receptor type 2 is 2.62 nM; in series [3], 3.76 nM. Also, in series [1], the metabolised at 0.25 h is 14.6%. The compound also showed a pH-dependent lipophilicity (logD) in series [2] of 2.3. The efflux ratio on P-gp (ABCB1) is 3.25.
With `Cc1ccc(-n2nccn2)c(C(=O)N2CCCO[C@H]2Cn2ncn(-c3ccc(F)cn3)c2=O)c1`, the 50% inhibitory concentration (IC50) was determined as 5.4 nM at Orexin receptor type 2 and 85.5 nM in series [3]. The metabolised at 0.25 h in series [1] came out at 15.6%. For the same compound, the logD in series [2] is 2.52. Moreover, at P-gp (ABCB1), the efflux ratio turned out to be 2.88.
In turn, `Cc1ccc(-n2nccn2)c(C(=O)N2CCO[C@@H]2Cn2ccc(-c3ccc(F)cn3)n2)c1` had a pH-dependent lipophilicity (logD) in series [2] of 2.68. In addition, the IC50 in series [3] was 2690 nM.
As to `Cc1ccc(-n2nccn2)c(C(=O)N2CCCC[C@@H]2Cn2ccc(-c3ccc(F)cn3)n2)c1`, the concentration for half-maximal inhibition (IC50) is 52.4 nM on Orexin receptor type 2 and 20.8 nM in series [3]. The logD in series [2] amounted to 2.95.
Consider `Cc1ccc(-n2nccn2)c(C(=O)N2CCOC[C@H]2Cn2ccc(-c3ccc(F)cn3)n2)c1`, for which the concentration for half-maximal inhibition (IC50) on Orexin receptor type 2 came to 15 nM; in series [3], 3.5 nM. In addition, in series [1], the metabolised at 0.25 h turned out to be 24.5%. Further, in series [2], the logD came to 2.33. Moreover, the efflux ratio at P-gp (ABCB1) was 3.56.
With `Cc1ccc(-n2nccn2)c(C(=O)N2CCC[C@H]2Cn2ccc(-c3ccc(F)cn3)n2)c1`, the results for the half-inhibitory concentration (IC50) (at Orexin receptor type 2; in series [3]) were 3.15 nM and 3.3 nM, respectively. Besides, in series [1], the metabolised at 0.25 h is 37.2%. For the same compound, the log distribution coefficient (logD) in series [2] was 3.08. For the same compound, the efflux ratio on P-gp (ABCB1) is 1.96.
In the case of `Cc1ccc(-n2nccn2)c(C(=O)N2CCCO[C@H]2Cn2ncc(-c3ccc(F)cn3)n2)c1`, the IC50 on Orexin receptor type 2 came out at 1.88 nM; in series [3], 2.9 nM. Also, the metabolised at 0.25 h in series [1] amounted to 16.4%. The same compound showed a logD in series [2] of 2.8. Moreover, the efflux ratio on P-gp (ABCB1) turned out to be 1.38.
Consider `Cc1ccc(-n2nccn2)c(C(=O)N2CCS[C@H]2Cn2ccc(-c3ccc(F)cn3)n2)c1`, for which the IC50 is 2300 nM at Orexin receptor type 2 and 61.1 nM in series [3]. Further, the metabolised at 0.25 h in series [1] was 53%. The logD in series [2] was 3.51. In addition, the efflux ratio at P-gp (ABCB1) was determined as 1.34.
Turning to `Cc1ccc(-n2nccn2)c(C(=O)N2CCCO[C@@H]2Cn2ccc(-c3ccc(F)cn3)n2)c1`, the results for the IC50 (at Orexin receptor type 2; in series [3]) were 274 nM and 344 nM, respectively. In series [2], this compound displayed a logD of 2.56.
For the compound `Cc1ccc(-n2nccn2)c(C(=O)N2COC[C@H]2Cn2ccc(-c3ccc(F)cn3)n2)c1`, the values for the half-maximal inhibitory concentration (IC50) (at Orexin receptor type 2; in series [3]) were 133 nM and 149 nM, respectively. Further, the metabolised at 0.25 h in series [1] turned out to be 18%. In series [2], this compound returned a logD of 2.52. Also, at P-gp (ABCB1), the efflux ratio amounted to 1.65.
For `O=C(c1cc(F)ccc1-c1ncccn1)N1CCCO[C@H]1Cn1ccc(-c2ccc(F)cn2)n1`, the half-maximal inhibitory concentration (IC50) worked out at 4.58 nM on Orexin receptor type 2 and 3.22 nM in series [3]. In addition, the metabolised at 0.25 h in series [1] is 28.9%. Besides, in series [2], the logD stood at 2.3. Also, the efflux ratio on P-gp (ABCB1) was 5.36.
In the case of `Cc1ccc(-n2nccn2)c(C(=O)N2CSC[C@H]2Cn2ccc(-c3ccc(F)cn3)n2)c1`, the results for the IC50 (at Orexin receptor type 2; in series [3]) were 13.1 nM and 4.6 nM, respectively. Also, the metabolised at 0.25 h in series [1] amounted to 73.7%. The same compound showed a pH-dependent lipophilicity (logD) in series [2] of 3.08. Further, the efflux ratio at P-gp (ABCB1) worked out at 1.13.
Consider `Cc1ccc(-n2nccn2)c(C(=O)N2CCO[C@H]2Cn2ccc(-c3ccc(F)cn3)n2)c1`, for which the metabolised at 0.25 h in series [1] was 15.7%. This compound also yielded a logD in series [2] of 2.67. Besides, in series [3], the IC50 turned out to be 8.08 nM.
On to `Cc1ccc(-n2nccn2)c(C(=O)N2CCCC[C@H]2Cn2ccc(-c3ccc(F)cn3)n2)c1`, for which the concentration for half-maximal inhibition (IC50) at Orexin receptor type 2 was found to be 1.64 nM; in series [3] it was 2.27 nM. Further, in series [1], the metabolised at 0.25 h was determined as 51.9%. The same compound displayed a logD in series [2] of 2.96. For the same compound, the efflux ratio at P-gp (ABCB1) was determined as 1.63.
On to `Cc1ccc(-n2nccn2)c(C(=O)N2CCC[C@@H]2Cn2ccc(-c3ccc(F)cn3)n2)c1`, for which the IC50 on Orexin receptor type 2 amounted to 313 nM; in series [3], 363 nM. The logD in series [2] is 3.06.
Turning to `Cc1ccc(-n2nccn2)c(C(=O)N2CCCO[C@H]2Cn2cc(-c3ccc(F)cc3)cn2)c1`, the “inhibition (INH)” value (in series [4]; against Cytochrome P450 3A4) was “Active” in each case. Besides, in series [1], the metabolised at 0.25 h was 24.8%. Moreover, in series [2], the log distribution coefficient (logD) stood at 3.15. Moreover, the concentration for half-maximal inhibition (IC50) in series [3] is 2.21 nM.
